IC50 and Ki data for 15 compounds are collected here from ChEMBL document CHEMBL1909046, “DrugMatrix in vitro pharmacology data”.

The term IC50 denotes the concentration that inhibits the measured activity by half.

The target in test [1] is T1, C-X-C chemokine receptor type 2 (Homo sapiens, UniProt P25025). Further: in other assays of this panel Not Active means under 50% inhibition at 10 µM.
T1 sequence (P25025 whole entry): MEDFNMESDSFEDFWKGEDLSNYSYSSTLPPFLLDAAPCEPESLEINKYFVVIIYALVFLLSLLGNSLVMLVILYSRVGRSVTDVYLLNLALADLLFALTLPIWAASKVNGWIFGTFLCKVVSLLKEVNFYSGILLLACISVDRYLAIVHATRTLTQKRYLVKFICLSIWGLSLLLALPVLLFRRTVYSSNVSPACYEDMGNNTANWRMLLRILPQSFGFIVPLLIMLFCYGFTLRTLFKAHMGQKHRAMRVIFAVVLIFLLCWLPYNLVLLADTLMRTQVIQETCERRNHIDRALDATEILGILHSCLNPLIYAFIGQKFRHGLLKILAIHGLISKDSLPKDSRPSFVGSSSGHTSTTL
The format is cell membranes, Membrane. Particulars: cho-k1.

For test [2], the target named is T2, Endothelin-1 receptor (Homo sapiens, UniProt P25101). Further: in other assays of this panel Not Active means under 50% inhibition at 10 µM.
T2 sequence (P25101 whole entry): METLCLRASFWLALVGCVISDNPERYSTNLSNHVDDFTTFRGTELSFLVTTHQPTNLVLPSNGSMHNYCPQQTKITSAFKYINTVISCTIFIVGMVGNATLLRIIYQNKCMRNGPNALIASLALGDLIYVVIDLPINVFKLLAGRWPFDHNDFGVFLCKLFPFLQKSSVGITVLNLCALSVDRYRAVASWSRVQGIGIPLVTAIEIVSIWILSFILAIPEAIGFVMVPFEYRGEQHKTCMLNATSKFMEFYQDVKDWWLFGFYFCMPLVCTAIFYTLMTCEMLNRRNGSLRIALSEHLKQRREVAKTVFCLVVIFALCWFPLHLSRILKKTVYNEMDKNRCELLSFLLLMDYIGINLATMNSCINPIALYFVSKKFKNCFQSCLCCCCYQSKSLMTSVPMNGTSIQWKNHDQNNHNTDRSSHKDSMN
The class given is cell membranes, CHO-K1, Membrane. The note with it: cho-k1.

Test [3] can be described thus: DRUGMATRIX: beta-Lactamase enzyme inhibition (substrate: Nitrocefin). Also noted: species or system Bacillus cereus. Particulars: Not Active = under 50% inhibition at 10 µM.
A short description of test [4]: DRUGMATRIX: Potassium Channel [KATP] radioligand binding (ligand: [3H] Glyburide). The format is cell membranes, Membrane. The note with it: hit-t15; Not Active = under 50% inhibition at 10 µM.
Test [5] concerns the target Delta-type opioid receptor (Homo sapiens, UniProt P41143). The class given is cell membranes, HEK293, Membrane. The note with it: hek293. Further: in other assays of this panel Not Active means under 50% inhibition at 10 µM.
Test [6] deals with T3, Nitric oxide synthase, inducible (Mus musculus, UniProt P29477).
T3 sequence (P29477 whole entry): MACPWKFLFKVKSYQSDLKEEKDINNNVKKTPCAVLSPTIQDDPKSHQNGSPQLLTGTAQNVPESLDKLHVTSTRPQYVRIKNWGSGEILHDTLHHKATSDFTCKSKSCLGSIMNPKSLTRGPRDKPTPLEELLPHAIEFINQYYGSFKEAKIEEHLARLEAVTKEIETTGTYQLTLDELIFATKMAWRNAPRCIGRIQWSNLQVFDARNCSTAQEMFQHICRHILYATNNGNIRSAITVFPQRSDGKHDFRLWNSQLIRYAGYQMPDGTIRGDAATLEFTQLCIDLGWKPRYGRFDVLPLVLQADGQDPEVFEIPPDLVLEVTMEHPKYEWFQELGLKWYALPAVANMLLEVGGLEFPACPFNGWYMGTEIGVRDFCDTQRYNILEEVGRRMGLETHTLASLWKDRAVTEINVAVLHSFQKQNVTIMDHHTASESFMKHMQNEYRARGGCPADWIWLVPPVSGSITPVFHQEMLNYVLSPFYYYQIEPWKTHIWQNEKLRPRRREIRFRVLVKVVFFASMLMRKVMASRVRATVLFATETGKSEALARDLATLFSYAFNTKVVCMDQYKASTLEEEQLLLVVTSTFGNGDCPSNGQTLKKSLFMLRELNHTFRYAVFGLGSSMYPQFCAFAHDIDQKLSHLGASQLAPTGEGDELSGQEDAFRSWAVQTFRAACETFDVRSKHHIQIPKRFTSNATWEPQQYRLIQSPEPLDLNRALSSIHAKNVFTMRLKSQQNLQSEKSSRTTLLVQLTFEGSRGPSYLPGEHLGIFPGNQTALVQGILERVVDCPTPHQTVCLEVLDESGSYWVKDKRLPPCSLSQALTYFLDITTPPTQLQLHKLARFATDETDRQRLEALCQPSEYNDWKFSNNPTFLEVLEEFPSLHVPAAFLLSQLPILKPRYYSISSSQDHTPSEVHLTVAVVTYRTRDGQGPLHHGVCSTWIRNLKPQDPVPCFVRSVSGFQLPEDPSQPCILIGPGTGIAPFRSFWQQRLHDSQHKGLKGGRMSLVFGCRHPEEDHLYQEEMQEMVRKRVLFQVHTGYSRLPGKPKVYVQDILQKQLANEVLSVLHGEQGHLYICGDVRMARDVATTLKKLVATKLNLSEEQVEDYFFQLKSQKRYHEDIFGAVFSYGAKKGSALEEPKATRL
Further details: species or system Escherichia coli.

Test [7] has as its target Epidermal growth factor receptor (Homo sapiens, UniProt P00533). Description: DRUGMATRIX: Protein Tyrosine Kinase, EGF Receptor enzyme inhibition (substrate: Poly(Glu:Tyr)). The format is cell-based, Insect cells. The note with it: Not Active = under 50% inhibition at 10 µM.

Delta-type opioid receptor, sequence (P41143 whole entry): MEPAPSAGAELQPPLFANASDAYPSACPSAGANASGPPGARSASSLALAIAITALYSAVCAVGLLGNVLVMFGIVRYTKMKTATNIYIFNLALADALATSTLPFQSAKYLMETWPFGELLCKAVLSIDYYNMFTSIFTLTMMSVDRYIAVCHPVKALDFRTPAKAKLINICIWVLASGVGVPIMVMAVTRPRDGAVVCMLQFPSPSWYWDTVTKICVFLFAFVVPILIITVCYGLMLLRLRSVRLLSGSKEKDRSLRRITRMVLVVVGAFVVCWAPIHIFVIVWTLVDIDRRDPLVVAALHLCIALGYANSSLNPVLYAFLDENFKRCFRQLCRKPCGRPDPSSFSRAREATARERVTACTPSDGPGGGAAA
Epidermal growth factor receptor, sequence (P00533 whole entry): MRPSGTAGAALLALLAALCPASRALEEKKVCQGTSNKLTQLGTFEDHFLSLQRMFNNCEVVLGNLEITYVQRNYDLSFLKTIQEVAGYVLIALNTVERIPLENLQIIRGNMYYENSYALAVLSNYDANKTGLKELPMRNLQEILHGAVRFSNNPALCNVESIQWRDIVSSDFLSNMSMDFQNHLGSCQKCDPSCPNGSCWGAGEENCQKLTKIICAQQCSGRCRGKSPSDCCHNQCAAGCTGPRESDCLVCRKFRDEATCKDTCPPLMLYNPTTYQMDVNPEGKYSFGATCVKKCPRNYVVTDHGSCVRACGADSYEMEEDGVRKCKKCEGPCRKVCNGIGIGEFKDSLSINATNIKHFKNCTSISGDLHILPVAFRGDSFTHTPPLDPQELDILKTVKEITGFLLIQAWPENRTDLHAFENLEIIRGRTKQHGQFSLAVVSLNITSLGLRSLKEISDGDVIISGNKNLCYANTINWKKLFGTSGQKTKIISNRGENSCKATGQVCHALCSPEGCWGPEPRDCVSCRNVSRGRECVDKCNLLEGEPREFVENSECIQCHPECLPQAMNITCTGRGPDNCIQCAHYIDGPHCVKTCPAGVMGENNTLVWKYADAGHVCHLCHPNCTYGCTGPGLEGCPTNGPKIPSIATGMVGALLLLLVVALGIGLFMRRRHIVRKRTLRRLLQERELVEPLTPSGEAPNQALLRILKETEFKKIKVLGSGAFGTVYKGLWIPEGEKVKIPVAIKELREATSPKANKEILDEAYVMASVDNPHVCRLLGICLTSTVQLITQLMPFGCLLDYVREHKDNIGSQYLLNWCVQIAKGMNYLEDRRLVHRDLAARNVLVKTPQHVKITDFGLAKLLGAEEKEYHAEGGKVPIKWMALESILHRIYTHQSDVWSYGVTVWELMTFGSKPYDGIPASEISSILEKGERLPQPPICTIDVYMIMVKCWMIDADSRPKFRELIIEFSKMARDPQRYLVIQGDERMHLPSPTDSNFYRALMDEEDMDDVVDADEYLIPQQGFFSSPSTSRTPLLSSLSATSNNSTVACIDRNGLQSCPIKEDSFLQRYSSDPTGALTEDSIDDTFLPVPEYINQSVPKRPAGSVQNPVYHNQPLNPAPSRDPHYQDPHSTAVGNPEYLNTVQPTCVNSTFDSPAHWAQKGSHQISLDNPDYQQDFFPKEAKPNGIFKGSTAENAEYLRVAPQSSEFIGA

As for `CCOC(=O)N1CCC(=C2c3ccc(Cl)cc3CCc3cccnc32)CC1` [LORATADINE], the IC50 result in test [1], in test [2], in test [3], in test [4], in test [5] and in test [6] was “Not Active” throughout. For the same compound, in test [7] (insect cells), the IC50 entry is on record as “Not Active”. In addition, the Ki entry in test [3] and in test [4] was “Not Active” each time.
Consider `Cn1ccnc1S` [METHIMAZOLE], for which the IC50 entry in test [1], in test [2], in test [3], in test [4], in test [5] and in test [6] was “Not Active” each time. In addition, the IC50 entry in test [7] (insect cells) was “Not Active”. Further, the Ki result in test [3] and in test [4] was “Not Active” throughout.
On to `CC[C@@H](CO)NC(=O)[C@@H]1C=C2c3cccc4[nH]cc(c34)C[C@H]2N(C)C1` [METHYLERGONOVINE], for which the IC50 result in test [1], in test [2], in test [3], in test [4], in test [5] and in test [6] was “Not Active” throughout. Further, in test [7] (insect cells), the IC50 result is “Not Active”. In addition, the Ki entry in test [3] and in test [4] was “Not Active” each time.
Turning to `COc1nc(C)nc(Cl)c1NC1=NCCN1` [MOXONIDINE], the IC50 result in test [1], in test [2], in test [3], in test [4], in test [5] and in test [6] was “Not Active” throughout. Further, the IC50 result in test [7] (insect cells) is “Not Active”. The Ki result in test [3] and in test [4] was “Not Active” in each case.
Take `COc1c(C)c2c(c(O)c1C/C=C(\C)CCC(=O)O)C(=O)OC2` [MYCOPHENOLIC ACID]: the IC50 entry in test [1], in test [2], in test [3], in test [4], in test [5] and in test [6] was “Not Active” in each case. In test [7] (insect cells), the IC50 entry is given as “Not Active”. Moreover, the Ki entry in test [3] and in test [4] was “Not Active” in each case.
`O=c1ncn2nc(Sc3ccc(F)cc3F)ccc2c1-c1c(Cl)cccc1Cl` [NEFLAMAPIMOD]: the IC50 entry in test [1], in test [2], in test [3], in test [4], in test [5] and in test [6] was “Not Active” in each case. Also, the IC50 entry in test [7] (insect cells) is “Not Active”. The Ki entry in test [3] and in test [4] was “Not Active” throughout.
Take `CO[C@H]1/C=C/O[C@@]2(C)Oc3c(C)c(O)c4c(O)c(c(/C=N/N5CCN(C)CC5)c(O)c4c3C2=O)NC(=O)/C(C)=C\C=C\[C@H](C)[C@H](O)[C@@H](C)[C@@H](O)[C@@H](C)[C@H](OC(C)=O)[C@@H]1C` [RIFAMPIN]: the IC50 result in test [1], in test [2], in test [3], in test [4], in test [5] and in test [6] was “Not Active” each time. Besides, the IC50 result in test [7] (insect cells) is on record as “Not Active”. For the same compound, the Ki entry in test [3] and in test [4] was “Not Active” in each case.
As for `Nc1nc2ccc(OC(F)(F)F)cc2s1` [RILUZOLE], the IC50 entry in test [1], in test [2], in test [3], in test [4], in test [5] and in test [6] was “Not Active” each time. Further, the IC50 entry in test [7] (insect cells) is given as “Not Active”. For the same compound, the Ki entry in test [3] and in test [4] was “Not Active” throughout.
In the case of `C=CCC1(C(C)CCC)C(=O)NC(=O)NC1=O` (stereo not given) [SECOBARBITAL], the IC50 result in test [1], in test [2], in test [3], in test [4], in test [5] and in test [6] was “Not Active” throughout. Besides, the IC50 entry in test [7] (insect cells) is listed as “Not Active”. The Ki entry in test [3] and in test [4] was “Not Active” each time.
Consider `C[C@@H]1CN(c2c(F)c(N)c3c(=O)c(C(=O)O)cn(C4CC4)c3c2F)C[C@H](C)N1` [SPARFLOXACIN], for which the IC50 result in test [1], in test [2], in test [3], in test [4], in test [5] and in test [6] was “Not Active” in each case. Besides, the IC50 result in test [7] (insect cells) is given as “Not Active”. Moreover, the Ki result in test [3] and in test [4] was “Not Active” in each case.
In the case of `CSc1ccc(/C=C2/C(C)=C(CC(=O)O)c3cc(F)ccc32)cc1` [SULINDAC SULFIDE], the IC50 result in test [1], in test [2], in test [3], in test [4], in test [5] and in test [6] was “Not Active” in each case. Moreover, the IC50 in test [7] (read-out: IC50) was determined as 24 µM. Further, the Ki entry in test [3] and in test [4] was “Not Active” each time.
Consider `Nc1c2c(nc3ccccc13)CCCC2` [TACRINE], for which the IC50 entry in test [1], in test [2], in test [3], in test [4], in test [5] and in test [6] was “Not Active” throughout. In test [7] (insect cells), the IC50 result is “Not Active”. The Ki entry in test [3] and in test [4] was “Not Active” throughout.
On to `CC(C)N1CCN(c2ccc(OCC3COC(Cn4cncn4)(c4ccc(Cl)cc4Cl)O3)cc2)CC1` (stereo not given) [TERCONAZOLE], for which the IC50 result in test [1], in test [2], in test [3], in test [4], in test [5] and in test [6] was “Not Active” throughout. For the same compound, the IC50 entry in test [7] (insect cells) is recorded as “Not Active”. Moreover, the Ki result in test [3] and in test [4] was “Not Active” in each case.
Consider `Cc1cccc(N(C)C(=S)Oc2ccc3ccccc3c2)c1` [TOLNAFTATE], for which the IC50 entry in test [1], in test [2], in test [3], in test [4], in test [5] and in test [6] was “Not Active” throughout. For the same compound, the IC50 result in test [7] (insect cells) is reported as “Not Active”. In addition, the Ki entry in test [3] and in test [4] was “Not Active” each time.
Take `NC[C@H]1CC[C@H](C(=O)O)CC1` [TRANEXAMIC ACID]: the IC50 result in test [1], in test [2], in test [3], in test [4], in test [5] and in test [6] was “Not Active” throughout. For the same compound, the IC50 entry in test [7] (insect cells) is on record as “Not Active”. The Ki entry in test [3] and in test [4] was “Not Active” in each case.
